In US12637467B2, “Inhibitor of BTK and mutants thereof” (Newave Pharmaceutical Inc., priority 2019, dated 2026):
Entries after “also recorded” stand apart in the source; their conditions may differ.

Biological target: WT BTK (Homo sapiens, UniProt Q06187)
Experiment: In vitro dialysis assay (irreversibility assay), WT BTK
Format: biochemical
Conditions: for Conclusion (WT BTK): reversible or irreversible inhibition after 24 hr dialysis; for Recovery after 24 h dialysis: 0.003 mM compound pre-incubated with 2 nM BTK for 2 hr, dialyzed 24 hr against buffer with 40 mM ATP, BTK activity vs non-dialyzed samples
Description: The compound-enzyme complex was dialyzed against the same buffer supplemented with 40 mM ATP for 24 hr. Cumulative dialysis factor >160,000×. After dialysis, the BTK activity was measured in the presence 40 mM ATP and 1 mM substrate peptide and compared to that in non-dialyzed samples. Assay buffer: 100 mM HEPES, pH7.5; 0.1% BSA, 0.01% Triton-X 100; 5 mM MgCl2; 1 mM DTT.

Chain of WT BTK (Q06187 whole entry): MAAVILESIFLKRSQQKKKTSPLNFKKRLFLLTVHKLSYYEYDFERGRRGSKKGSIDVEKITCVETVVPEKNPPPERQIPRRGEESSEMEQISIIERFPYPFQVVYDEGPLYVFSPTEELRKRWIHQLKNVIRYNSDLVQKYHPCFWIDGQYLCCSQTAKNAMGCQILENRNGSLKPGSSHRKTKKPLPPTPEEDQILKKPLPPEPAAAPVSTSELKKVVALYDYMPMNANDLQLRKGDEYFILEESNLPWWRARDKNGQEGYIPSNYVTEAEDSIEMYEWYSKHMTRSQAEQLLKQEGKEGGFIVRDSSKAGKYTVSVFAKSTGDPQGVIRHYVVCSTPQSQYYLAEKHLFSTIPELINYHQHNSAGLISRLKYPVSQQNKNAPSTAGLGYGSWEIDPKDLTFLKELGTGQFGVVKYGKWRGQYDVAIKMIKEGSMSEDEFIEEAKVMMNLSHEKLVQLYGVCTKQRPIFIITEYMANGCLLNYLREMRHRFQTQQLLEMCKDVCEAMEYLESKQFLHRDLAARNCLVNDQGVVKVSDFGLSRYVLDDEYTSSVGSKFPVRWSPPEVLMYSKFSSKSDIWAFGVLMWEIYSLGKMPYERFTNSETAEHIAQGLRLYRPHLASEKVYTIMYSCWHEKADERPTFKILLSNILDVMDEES

| SMILES | Conclusion (WT BTK) | Recovery after 24 h dialysis |
| --- | --- | --- |
| C=CC(=O)Nc1cc(Nc2nc(-c3ccnc(N4CCn5c(cc6c5CC(C)(C)C6)C4=O)c3CO)cn(C)c2=O)ccc1N1CCN(C2COC2)C[C@@H]1C [Example 3, (S)—N-(5-((6-(2-(7,7-dimethyl-1-oxo-1,3,4,6,7,8-hexahydro-2H-cyclopenta[4,5]pyrrolo[1,2-a]pyrazin-2-yl)-3-(hydroxymethyl)pyridin-4-yl)-4-methyl-3-oxo-3,4-dihydropyrazin-2-yl)amino)-2-(2-methyl-4-(oxetan-3-yl)piperazin-1-yl)phenyl)acrylamide] | irreversible inhibitors; also recorded: Irreversible/covalent inhibition |  |
| C=CC(=O)Nc1cc(Nc2nc(-c3ccnc(N4CCn5c(cc6c5CC(C)(C)C6)C4=O)c3C)cn(C)c2=O)ccc1N1CCN(C2COC2)C[C@@H]1C [Example 11, (S)—N-(5-((6-(2-(7,7-dimethyl-1-oxo-1,3,4,6,7,8-hexahydro-2H-cyclopenta[4,5]pyrrolo[1,2-a]pyrazin-2-yl)-3-methylpyridin-4-yl)-4-methyl-3-oxo-3,4-dihydropyrazin-2-yl)amino)-2-(2-methyl-4-(oxetan-3-yl)piperazin-1-yl)phenyl)acrylamide] | irreversible inhibitors; also recorded: Irreversible/covalent inhibition |  |
| C=CC(=O)Nc1cc(Nc2nc(-c3ccnc(N4CCn5c(cc6c5CC(C)(C)C6)C4=O)c3CO)cn(C)c2=O)ccc1N1CCC(N2CCOCC2)CC1C (centres unmarked) [Example 12, N-(5-((6-(2-(7,7-dimethyl-1-oxo-1,3,4,6,7,8-hexahydro-2H-cyclopenta[4,5]pyrrolo[1,2-a]pyrazin-2-yl)-3-(hydroxymethyl)pyridin-4-yl)-4-methyl-3-oxo-3,4-dihydropyrazin-2-yl)amino)-2-(2-methyl-4-morpholinopiperidin-1-yl)phenyl)acrylamide] | irreversible inhibitors; also recorded: Irreversible/covalent inhibition |  |
| C=CC(=O)Nc1cc(Nc2nc(-c3ccnc(N4CCn5c(cc6c5CC(C)(C)C6)C4=O)c3C)cn(C)c2=O)ccc1N1CCC(N2CCOCC2)CC1C [Example 17, N-(5-[[6-(2-[4,4-dimethyl-9-oxo-1,10-diazatricyclo[6.4.0.0^[2,6]]dodeca-2(6),7-dien-10-yl]-3-methylpyridin-4-yl)-4-methyl-3-oxopyrazin-2-yl]amino]-2-[(2S)-2-methyl-4-(morpholin-4-yl)piperidin-1-yl]phenyl)prop-2-enamide] | Irreversible/covalent inhibition |  |
| C=CC(=O)Nc1cc(Nc2nc(-c3ccnc(N4CCn5c(cc6c5CC(C)(C)C6)C4=O)c3C)cn(C)c2=O)ccc1N1CCC(N2CCOCC2)CC1.Cl [Example 18, N-(5-[[6-(2-[4,4-dimethyl-9-oxo-1,10-diazatricyclo[6.4.0.0^[2,6]]dodeca-2(6),7-dien-10-yl]-3-methylpyridin-4-yl)-4-methyl-3-oxopyrazin-2-yl]amino]-2-[4-(morpholin-4-yl)piperidin-1-yl]phenyl)prop-2-enamide hydrochloride] | Irreversible/covalent inhibition | ~1% |
| C=CC(=O)Nc1cc(Nc2nc(-c3ccnc(N4CCn5c(cc6c5CC(C)(C)C6)C4=O)c3CO)cn(C)c2=O)ccc1N1CCC(N2CCC(F)(F)CC2)CC1 [Example 20, N-(2-[4,4-difluoro-[1,4′-bipiperidin]-1′-yl]-5-[[6-(2-[4,4-dimethyl-9-oxo-1,10-diazatricyclo[6.4.0.0^[2,6]]dodeca-2(6),7-dien-10-yl]-3-(hydroxymethyl)pyridin-4-yl)-4-methyl-3-oxopyrazin-2-yl]amino]phenyl)prop-2-enamide] | Irreversible/covalent inhibition | ~1% |
